US20140288115A1, “COMPOSITIONS AND METHODS FOR TREATING BRAIN CANCER” (UNIVERSITY OF SOUTHERN CALIFORNIA, priority 2011, published 2014)

Columns and labels:
[1] = system: TMZ-resistant tumor cells; assay: migration and invasion of TMZ-resistant tumor cells; type: cell-based
[2] = in vivo, cited from earlier work
[3] = system: TMZ-resistant glioma cell lines; assay: cytotoxicity of noscapine in TMZ-resistant glioma cell lines; type: cell-based
[4] = system: TMZ-resistant U251 glioma cells; assay: intracranial rodent xenograft tumor model, survival; type: in vivo, nude mice
Description: TMZ-resistant U251 glioma cells (R) were implanted intracranially into nude mice. After 7 days, treatment was initiated. […] Survival was used as an endpoint; * signifies statistical significance (p<0.05).
After 7 days, treatment was initiated.

Compound: COc1ccc2c(c1OC)C(=O)O[C@@H]2[C@H]1c2c(cc3c(c2OC)OCO3)CCN1C [noscapine, (3S)-6,7-Dimethoxy-3-[(5R)-5,6,7,8-tetrahydro-4-methoxy-6-methyl-1,3-dioxolo (4,5-g)isoquinolin-5-yl]-1(3H)-isobenzofuranone]
- invasion of TMZ-resistant tumor cells [1]: decreased
- migration of TMZ-resistant tumor cells [1]: decreased
- oral bioavailability ([2]; po): orally bioavailable
- crossing of the blood-brain-barrier [2]: known to cross the blood-brain-barrier
- cell death ([3]; 4 different TMZ-resistant glioma cell lines): caused cell death
- cell cycle arrest ([3]; TMZ-resistant glioma cell lines, prolonged arrest causes cell cytotoxicity): caused an arrest in the G2/M phase of cell cycle
- tumor growth ([4]; animal models): reduced tumor growth
- survival of TMZ-resistant tumor bearing animals ([4]; noscapine 225 mg/kg twice daily by gavage, treatment from day 7 after implantation): significantly enhanced survival
